According to article PMC10017709, “Structural basis of selective cannabinoid CB2 receptor activation” (Nature Communications, 2023):
Values joined by “and” are separate entries in the source; they are usually repeats but may differ in a detail not shown here. Identical values can stand only once. Like-named read-outs stand apart in the source and are kept apart here.

Legend:
[1] = biological target: T1, hCB2R (Homo sapiens, UniProt P34972); test: [3H]RO6957022 displacement assay; format: binding; settings: for percentage specific [3H]RO6957022 binding (displacement): individual replicates
T1 construct: host or cells: CHO-K1 (CHOK1_hCB2bgal, PathHunter), membranes
T1 sequence (P34972 whole entry): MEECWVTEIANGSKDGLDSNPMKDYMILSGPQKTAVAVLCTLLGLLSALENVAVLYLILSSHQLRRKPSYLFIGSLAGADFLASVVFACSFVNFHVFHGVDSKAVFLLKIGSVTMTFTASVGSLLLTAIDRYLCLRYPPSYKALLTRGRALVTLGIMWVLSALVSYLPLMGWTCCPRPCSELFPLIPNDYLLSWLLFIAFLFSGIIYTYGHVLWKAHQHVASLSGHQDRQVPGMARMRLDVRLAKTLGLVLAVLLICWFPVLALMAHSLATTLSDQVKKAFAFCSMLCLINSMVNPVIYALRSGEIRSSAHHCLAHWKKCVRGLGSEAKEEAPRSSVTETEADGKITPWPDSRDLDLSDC

[2] = biological target: T1, hCB2R; test: [3H]RO6957022 competition association assay; format: binding; settings: for percentage specific [3H]RO6957022 binding (competition association): individual replicates
[3] = biological target: T2, CB2R WT (Homo sapiens, UniProt P34972); test: [35S]GTPγS G protein activation assay, CB2R WT; format: biochemical; settings: for Emax: CB2R WT, read-out: Emax (%); for [35S]GTPγS binding, percentage of WT / [35S]GTPγS binding, percentage of CP55,940: individual replicates
T2 sequence (P34972 whole entry): as above

[4] = biological target: T3, CB2R-L185^ECL2H (Homo sapiens, UniProt P34972, L185H); test: [35S]GTPγS assay, CB2R L185H mutant; format: biochemical; settings: L185H mutant
T3 sequence (P34972 whole entry L185H): as the sequence (P34972 whole entry) above, with L185H counted along it

[5] = biological target: CB2R-L182^ECL2I (Homo sapiens, UniProt P34972, L182I); test: [35S]GTPγS assay, CB2R L182I mutant; format: biochemical; settings: L182I mutant
Sequence of CB2R-L182^ECL2I (P34972 whole entry L182I): as the sequence (P34972 whole entry) above, with L182I counted along it

[6] = biological target: CB2R-E181^ECL2D (Homo sapiens, UniProt P34972, E181D); test: [35S]GTPγS assay, CB2R E181D mutant; format: biochemical; settings: E181D mutant
Sequence of CB2R-E181^ECL2D (P34972 whole entry E181D): as the sequence (P34972 whole entry) above, with E181D counted along it

[7] = biological target: T4, CB2R-Quadruple^TM1,7 (Homo sapiens, UniProt P34972, C40S/K279T/K33Q/V36I); test: [35S]GTPγS assay, CB2R quadruple mutant; format: biochemical; settings: for [35S]GTPγS binding, percentage of WT: QuadrupleTM1,7, individual replicates
T4 sequence (P34972 whole entry K33Q/V36I/C40S/K279T): as the sequence (P34972 whole entry) above, with K33Q, V36I, C40S, K279T counted along it
Protocol: In short, transient HEK293T membrane homogenates (10 µg/well) were diluted in assay buffer (50 mM Tris-HCl (pH 7.4), 5 mM MgCl2, 150 mM NaCl, 1 mM EDTA, 0.05% BSA (w/v) and 1 mM DTT, freshly prepared every day) and were pretreated with 10 µg saponin and 1 µM GDP. For endocannabinoid samples, the membranes were additionally pretreated for 30 min with 50 µM PMSF before agonist addition. […] Basal receptor activity was determined in the presence of vehicle only (0.2% DMSO/acetonitrile). […] Filtration was performed, and filter-bound radioactivity was determined as described under [^3H]RO6957022 Competition Association Assays except for using ice-cold 50 mM Tris-HCl (pH 7.4), 5 mM MgCl2 buffer.

[8] = biological target: T2, CB2R WT; test: [3H]CP55,940 displacement assay, CB2R WT; format: binding
[9] = biological target: CB2R-I110^3.29L (Homo sapiens, UniProt P34972, I110L); test: [3H]CP55,940 displacement assay, CB2R I110L mutant; format: binding
Sequence of CB2R-I110^3.29L (P34972 whole entry I110L): as the sequence (P34972 whole entry) above, with I110L counted along it

[10] = biological target: T3, CB2R-L185^ECL2H; test: [3H]CP55,940 displacement assay, CB2R L185H mutant; format: binding
[11] = biological target: T4, CB2R-Quadruple^TM1,7; test: [3H]CP55,940 displacement assay, CB2R quadruple mutant; format: binding; settings: CB2R Quadruple TM1,7 mutant; <5 when curve fit not finished
[12] = biological target: hCB1R WT (Homo sapiens, UniProt P21554); test: [35S]GTPγS G protein activation assay, CB1R WT; format: biochemical; settings: CB1R WT; 10 µM agonist
Sequence of hCB1R WT (P21554 whole entry): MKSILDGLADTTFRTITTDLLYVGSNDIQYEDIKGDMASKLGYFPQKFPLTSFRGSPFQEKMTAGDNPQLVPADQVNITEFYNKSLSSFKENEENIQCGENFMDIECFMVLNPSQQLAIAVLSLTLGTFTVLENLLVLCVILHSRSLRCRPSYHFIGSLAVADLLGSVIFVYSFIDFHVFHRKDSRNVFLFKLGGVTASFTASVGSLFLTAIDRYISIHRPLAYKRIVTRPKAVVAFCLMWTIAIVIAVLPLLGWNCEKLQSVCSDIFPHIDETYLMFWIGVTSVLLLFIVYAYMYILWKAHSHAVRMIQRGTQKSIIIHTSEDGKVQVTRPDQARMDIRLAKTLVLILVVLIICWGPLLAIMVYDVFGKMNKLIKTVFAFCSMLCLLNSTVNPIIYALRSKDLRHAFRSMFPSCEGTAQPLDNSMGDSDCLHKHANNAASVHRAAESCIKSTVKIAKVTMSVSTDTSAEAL

[13] = biological target: CB1R-L359^6.51V (Homo sapiens, UniProt P21554, L359V); test: [35S]GTPγS assay, CB1R L359V mutant; format: biochemical; settings: CB1R L359V; 10 µM agonist
Sequence of CB1R-L359^6.51V (P21554 whole entry L359V): as the sequence (P21554 whole entry) above, with L359V counted along it

[14] = biological target: CB1R-H270^ECL2L (Homo sapiens, UniProt P21554, H270L); test: [35S]GTPγS assay, CB1R H270L mutant; format: biochemical; settings: CB1R H270L; 10 µM agonist
Sequence of CB1R-H270^ECL2L (P21554 whole entry H270L): as the sequence (P21554 whole entry) above, with H270L counted along it

[15] = biological target: CB1R I267ECL2L (Homo sapiens, UniProt P21554, I267L); test: [35S]GTPγS assay, CB1R I267L mutant; format: biochemical; settings: CB1R I267L; 10 µM agonist
Sequence of CB1R I267ECL2L (P21554 whole entry I267L): as the sequence (P21554 whole entry) above, with I267L counted along it

[16] = biological target: T5, CB1R D266ECL2E (Homo sapiens, UniProt P21554, D266E); test: [35S]GTPγS assay, CB1R D266E mutant; format: biochemical; settings: CB1R D266E; 10 µM agonist
T5 construct: The WT CB1R and CB2R genes were subcloned into vector pcDNA3.1; HA signal peptide (N); expressed in transfected cells; host or cells: HEK293T (transient, membrane homogenates)
T5 sequence (P21554 whole entry D266E): as the sequence (P21554 whole entry) above, with D266E counted along it

[17] = tested on: CB1R QuadrupleTM1,7; test: [35S]GTPγS assay, CB1R quadruple mutant; format: biochemical, human; settings: CB1R Quadruple TM1,7; 10 µM agonist
[18] = at 10 µM compared to WT, read-out: Emax (%)

SMILES: CCCCC/C=C\C/C=C\C/C=C\C/C=C\CCCC(=O)OC(CO)CO [2-AG, 2-arachidonoylglycerol]
- Ki ([1]; CHOK1_hCB2bgal membranes, 10 °C): 0.0973 µM
- percentage specific [3H]RO6957022 binding (displacement) ([1]; log [agonist] (M) -5): -4.06% and 1.99% and 1.24%
- percentage specific [3H]RO6957022 binding (displacement) ([1]; log [agonist] (M) -6): 9.18% and 29.61% and 23.88%
- percentage specific [3H]RO6957022 binding (displacement) ([1]; log [agonist] (M) -7): 74.28% and 92.58% and 77.97%
- percentage specific [3H]RO6957022 binding (displacement) ([1]; log [agonist] (M) -8): 95.23% and 106.70% and 113.70%
- Kd ([2]; KD = koff/kon, read-out: Kinetic KD): 0.0427 µM
- percentage specific [3H]RO6957022 binding (competition association) ([2]; Time 1 min): 2.75% and 8.28% and -0.30%
- percentage specific [3H]RO6957022 binding (competition association) ([2]; Time 3 min): 14.15% and 22.81% and 17.03%
- percentage specific [3H]RO6957022 binding (competition association) ([2]; Time 5 min): 22.93% and 20.44% and 8.60%
- percentage specific [3H]RO6957022 binding (competition association) ([2]; Time 7 min): 18.57% and 22.56% and 19.64%
- percentage specific [3H]RO6957022 binding (competition association) ([2]; Time 10 min): 21.07% and 23.19% and 30.43%
- percentage specific [3H]RO6957022 binding (competition association) ([2]; Time 20 min): 26.97% and 35.00% and 33.48%
- percentage specific [3H]RO6957022 binding (competition association) ([2]; Time 30 min): 25.36% and 45.58% and 22.89%
- percentage specific [3H]RO6957022 binding (competition association) ([2]; Time 45 min): 33.64% and 44.13% and 30.07%
- percentage specific [3H]RO6957022 binding (competition association) ([2]; Time 60 min): 37.87% and 46.21% and 40.22%
- percentage specific [3H]RO6957022 binding (competition association) ([2]; Time 90 min): 43.62% and 64.89% and 33.23%
- percentage specific [3H]RO6957022 binding (competition association) ([2]; Time 120 min): 44.54% and 60.70% and 44.33%
- ET (engagement time) ([2]; at 1 µM agonist, ET = 1/(kon ∙ 1 × 10-6)): 18.8 ± 3.61 s
- Emax ([3]; maximum effect at 10 µM compared to WT (Suppl. Table 6)): 85 ± 2%
- Emax ([3]; maximum effect compared to CP55,940): 93 ± 22%
- [35S]GTPγS binding, percentage of WT ([3]; log [ligand] (M) -5): 81.88 percentage of WT and 83.76 percentage of WT and 88.90 percentage of WT
- [35S]GTPγS binding, percentage of WT ([3]; log [ligand] (M) -6): 30.38 percentage of WT and 55.12 percentage of WT and 21.88 percentage of WT
- [35S]GTPγS binding, percentage of WT ([3]; log [ligand] (M) -7): 23.64 percentage of WT and 24.41 percentage of WT and 16.38 percentage of WT
- [35S]GTPγS binding, percentage of WT ([3]; log [ligand] (M) -8): 45.75 percentage of WT and 38.50 percentage of WT and 15.70 percentage of WT
- EC50 ([3]; [35S]GTPγS, HEK293T membranes transiently expressing CB2R WT): 1.26 µM
- [35S]GTPγS binding, percentage of CP55,940 ([3]; log [agonist] (M) -5): 64.32% and 135.41% and 79.23%
- [35S]GTPγS binding, percentage of CP55,940 ([3]; log [agonist] (M) -6): 23.86% and 33.33% and 42.53%
- [35S]GTPγS binding, percentage of CP55,940 ([3]; log [agonist] (M) -7): 18.57% and 24.95% and 4.53%
- [35S]GTPγS binding, percentage of CP55,940 ([3]; log [agonist] (M) -8): 35.93% and 23.91% and 2.02%
- EC50 ([4]; HEK293T membranes): 1.26 µM
- Emax [4, 18]: 171 ± 16%
- EC50 ([5]; <5 when curve fit not finished): > 10 µM
- Emax [5, 18]: 15 ± 9%
- EC50 ([6]; <5 when curve fit not finished): > 10 µM
- Emax [6, 18]: 22 ± 15%
- EC50 ([7]; Quadruple TM1,7 mutant, <5 when curve fit not finished): > 10 µM
- Emax ([7]; Quadruple TM1,7 mutant, at 10 µM compared to WT, read-out: Emax (%)): 6 ± 4%
- [35S]GTPγS binding, percentage of WT ([7]; log [ligand] (M) -5): 11.95 percentage of WT and 6.85 percentage of WT and -0.68 percentage of WT
- [35S]GTPγS binding, percentage of WT ([7]; log [ligand] (M) -6): 26.61 percentage of WT and 0.18 percentage of WT
- [35S]GTPγS binding, percentage of WT ([7]; log [ligand] (M) -7): -4.94 percentage of WT and -35.40 percentage of WT and 2.05 percentage of WT
- [35S]GTPγS binding, percentage of WT ([7]; log [ligand] (M) -8): -0.27 percentage of WT and -23.76 percentage of WT and 1.32 percentage of WT
- Ki [8]: 1.58 µM
- Ki [9]: 1.58 µM
- Ki [10]: 0.398 µM
- Ki [11]: > 10 µM
- Agonist-mediated activation [12]: 1.3 ± 0.1 fold over its basal
- Agonist-mediated activation [13]: 1.4 ± 0.2 fold over its basal
- Agonist-mediated activation [14]: 1.5 ± 0.1 fold over its basal
- Agonist-mediated activation [15]: 1.1 ± 0.0 fold over its basal
- Agonist-mediated activation [16]: 1.5 ± 0.2 fold over its basal
- Agonist-mediated activation [17]: 1.8 ± 0.1 fold over its basal
